Laboratory results from ChEMBL document CHEMBL5113515, “The Discovery of GSK3640254, a Next-Generation Inhibitor of HIV-1 Maturation” (J Med Chem, 2022).

What was measured:
[1] = test system: Human immunodeficiency virus 1; assay: Antiviral activity against HIV1 wild type NL (4 to 3) infected in human MT2 cells measured after 4 to 5 days by dual-luciferase reporter assay; format: functional, organism-based; conditions: Human immunodeficiency virus 1, MT2
[2] = test system: Human immunodeficiency virus 1; assay: Antiviral activity against HIV1 wild type NL (4 to 3) infected in human MT2 cells measured after 4 to 5 days in presence of human serum by dual-luciferase reporter assay; format: functional, organism-based
[3] = test system: Human immunodeficiency virus 1; assay: Antiviral activity against HIV1 harbouring T332S/V362I/prR41G mutant infected in human MT2 cells measured after 4 to 5 days by dual-luciferase reporter assay; format: functional, organism-based; conditions: Human immunodeficiency virus 1, MT2
MT2 = assay: Cytotoxicity in human MT2 cells assessed as reduction in cell viability; format: functional
[4] = test system: Human immunodeficiency virus 1; assay: Antiviral activity against HIV1 harbouring deltaV370/T371A mutant infected in human MT2 cells measured after 4 to 5 days by dual-luciferase reporter assay; format: functional, organism-based; conditions: Human immunodeficiency virus 1, MT2
[5] = test system: Human immunodeficiency virus 1; assay: Antiviral activity against HIV1 harbouring V362I/V370A mutant infected in human MT2 cells measured after 4 to 5 days by dual-luciferase reporter assay; format: functional, organism-based; conditions: Human immunodeficiency virus 1, MT2
[6] = AUC in rat at 5 mg/kg, po; format: ADME, organism-based; parameters: dose 5 mg/kg, route po; conditions: in vivo, read-out: AUC
[7] = Human immunodeficiency virus 1, MT2

Row | SMILES | EC50 [1] [nM] | EC50 [2, 7] [nM] | EC50 [3] [nM] | CC50 (MT2) [nM] | EC50 [4] [nM] | EC50 [5] [nM] | AUC [6] [µM·h] | EC50 ([2]; mt2) [nM]
1 | C=C(C)[C@@H]1CC[C@]2(NCCN3CCS(=O)(=O)CC3)CC[C@]3(C)[C@H](CC[C@@H]4[C@@]5(C)CC=C(C6=CCC(CC7CC7)(C(=O)O)CC6)C(C)(C)[C@@H]5CC[C@]43C)[C@@H]12 (stereo not given in full) | 4.5 | 48.5 | 54.1 | 16200 | – | – | – | –
2 | C=C(C)[C@@H]1CC[C@]2(NCCN3CCS(=O)(=O)CC3)CC[C@]3(C)[C@H](CC[C@@H]4[C@@]5(C)CC=C(C6=CC7C(C6)C7C(=O)O)C(C)(C)[C@@H]5CC[C@]43C)[C@@H]12 (stereo not given in full) | 2.3 | 30.9 | 299 | 6400 | 16.7 | 657 | – | –
3 | C=C(C)[C@@H]1CC[C@]2(NCCN3CCS(=O)(=O)CC3)CC[C@]3(C)[C@H](CC[C@@H]4[C@@]5(C)CC=C(C6=CCC(COCC)(C(=O)O)CC6)C(C)(C)[C@@H]5CC[C@]43C)[C@@H]12 (stereo not given in full) | 3.2 | 21.8 | 11.5 | 5100 | – | – | – | –
4 | C=C(C)[C@@H]1CC[C@]2(NCCN3CCS(=O)(=O)CC3)CC[C@]3(C)[C@H](CC[C@@H]4[C@@]5(C)CC=C(C6=CCC(C)(C(=O)O)CC6)C(C)(C)[C@@H]5CC[C@]43C)[C@@H]12 (stereo not given in full) | 1.5 | 12 | 4.8 | 13100 | 9.8 | – | 5.86 | –
5 | C=C(C)[C@@H]1CC[C@]2(NCCN3CCS(=O)(=O)CC3)CC[C@]3(C)[C@H](CC[C@@H]4[C@@]5(C)CC=C(C6=CCC(C(=O)O)(c7ccccc7)CC6)C(C)(C)[C@@H]5CC[C@]43C)[C@@H]12 (stereo not given in full) | 7.7 | 15.1 | 31.2 | 13500 | – | – | – | –
6 | C=C(C)[C@@H]1CC[C@]2(NCCN3CCS(=O)(=O)CC3)CC[C@]3(C)[C@H](CC[C@@H]4[C@@]5(C)CC=C(C6=CCC(OC)(C(=O)O)CC6)C(C)(C)[C@@H]5CC[C@]43C)[C@@H]12 (stereo not given in full) | 2.5 | 25 | 21.8 | 13100 | – | – | 8.24 | –
7 | C=C(C)[C@@H]1CC[C@]2(NCCN3CCS(=O)(=O)CC3)CC[C@]3(C)[C@H](CC[C@@H]4[C@@]5(C)CC=C(C6=CCC(C(=O)O)(C(=O)O)CC6)C(C)(C)[C@@H]5CC[C@]43C)[C@@H]12 | – | – | 292 | 18600 | – | – | – | –
8 | C=C(C)[C@@H]1CC[C@]2(NCCN3CCS(=O)(=O)CC3)CC[C@]3(C)[C@H](CC[C@@H]4[C@@]5(C)CC=C(C6=CCC(CC(=O)O)(C(=O)O)CC6)C(C)(C)[C@@H]5CC[C@]43C)[C@@H]12 (stereo not given in full) | 3.5 | 135 | 14.1 | 6400 | – | – | – | –
9 | C=C(C)[C@@H]1CC[C@]2(NCCN3CCS(=O)(=O)CC3)CC[C@]3(C)[C@H](CC[C@@H]4[C@@]5(C)CC=C(C6=CCC(O)(C(=O)O)CC6)C(C)(C)[C@@H]5CC[C@]43C)[C@@H]12 (stereo not given in full) | 2 | 13.1 | 28.5 | 6400 | 2.4 | 6 | – | –
10 | C=C(C)[C@@H]1CC[C@]2(NCCN3CCS(=O)(=O)CC3)CC[C@]3(C)[C@H](CC[C@@H]4[C@@]5(C)CC=C(C6=CCC(CF)(C(=O)O)CC6)C(C)(C)[C@@H]5CC[C@]43C)[C@@H]12 (stereo not given in full) | 1.3 | 9.5 | 3.9 | 6800 | – | – | 7.7 | –
11 | C=C(C)[C@@H]1CC[C@]2(NCCN3CCS(=O)(=O)CC3)CC[C@]3(C)[C@H](CC[C@@H]4[C@@]5(C)CC=C(C6=CCC(CC)(C(=O)O)CC6)C(C)(C)[C@@H]5CC[C@]43C)[C@@H]12 (stereo not given in full) | 3.6 | 37.9 | 9.7 | 27500 | – | – | – | –
12 | C=C(C)[C@@H]1CC[C@]2(NCCN3CCS(=O)(=O)CC3)CC[C@]3(C)[C@H](CC[C@@H]4[C@@]5(C)CC=C(C6=CCC(CO)(C(=O)O)CC6)C(C)(C)[C@@H]5CC[C@]43C)[C@@H]12 (stereo not given in full) | 4 | 5.9 | 25.6 | 14200 | 4.6 | 1.9 | – | –
13 | C=C(C)[C@@H]1CC[C@]2(NCCN3CCC(S(C)(=O)=O)CC3)CC[C@]3(C)[C@H](CC[C@@H]4[C@@]5(C)CC=C(C6=CCC(CF)(C(=O)O)CC6)C(C)(C)[C@@H]5CC[C@]43C)[C@@H]12 (stereo not given in full) | 1.7 | 10.9 | 6.6 | 12400 | – | – | 14.7 | –
14 | C=C(C)[C@@H]1CC[C@]2(NCCN3CCC(S(C)(=O)=O)CC3)CC[C@]3(C)[C@H](CC[C@@H]4[C@@]5(C)CC=C(C6=CC[C@@H](C(=O)O)CC6)C(C)(C)[C@@H]5CC[C@]43C)[C@@H]12 | – | 4.9 | 18.8 | 9100 | – | – | 9.18 | –
15 | C=C(C)[C@@H]1CC[C@]2(NCCN3CCS(=O)(=O)CC3)CC[C@]3(C)[C@H](CC[C@@H]4[C@@]5(C)CC=C(C6=CCC(OC(C)C)(C(=O)O)CC6)C(C)(C)[C@@H]5CC[C@]43C)[C@@H]12 (stereo not given in full) | 5 | 48.5 | 987 | 9700 | – | – | – | –
16 | C=C(C)[C@@H]1CC[C@]2(NCCN3CCC(S(C)(=O)=O)CC3)CC[C@]3(C)[C@H](CC[C@@H]4[C@@]5(C)CC=C(C6=CC[C@@](CF)(C(=O)O)CC6)C(C)(C)[C@@H]5CC[C@]43C)[C@@H]12 | 1.9 | 18.3 | 8 | 13400 | 5.8 | – | 19.1 | –
17 | C=C(C)[C@@H]1CC[C@]2(NCCN3CCS(=O)(=O)CC3)CC[C@]3(C)[C@H](CC[C@@H]4[C@@]5(C)CC=C(C6=CC7(C6)CC(C(=O)O)(C(=O)O)C7)C(C)(C)[C@@H]5CC[C@]43C)[C@@H]12 | 1.3 | – | – | > 30000 | – | – | – | –
18 | C=C(C)[C@@H]1CC[C@]2(NCCN3CCC(S(C)(=O)=O)CC3)CC[C@]3(C)[C@H](CC[C@@H]4[C@@]5(C)CC=C(C6=CCC(CC(F)F)(C(=O)O)CC6)C(C)(C)[C@@H]5CC[C@]43C)[C@@H]12 (stereo not given in full) | 1.4 | 9.6 | 4 | 7200 | – | – | 4.29 | –
19 | C=C(C)[C@@H]1CC[C@]2(NCCN3CCS(=O)(=O)CC3)CC[C@]3(C)[C@H](CC[C@@H]4[C@@]5(C)CC=C(C6=CCC(COC)(C(=O)O)CC6)C(C)(C)[C@@H]5CC[C@]43C)[C@@H]12 (stereo not given in full) | 1.5 | 6.7 | 13.9 | 4700 | – | – | – | –
20 | C=C(C)[C@@H]1CC[C@]2(NCCN3CCS(=O)(=O)CC3)CC[C@]3(C)[C@H](CC[C@@H]4[C@@]5(C)CC=C(C6=CCC(CCO)(C(=O)O)CC6)C(C)(C)[C@@H]5CC[C@]43C)[C@@H]12 (stereo not given in full) | 4.6 | 85.8 | 15.9 | 12700 | 5.3 | 4.5 | – | –
21 | C=C(C)[C@@H]1CC[C@]2(NCCN3CCC(S(C)(=O)=O)CC3)CC[C@]3(C)[C@H](CC[C@@H]4[C@@]5(C)CC=C(C6=CC[C@](CF)(C(=O)O)CC6)C(C)(C)[C@@H]5CC[C@]43C)[C@@H]12 | 2.3 | 14.7 | 6.5 | 7100 | 8.2 | – | 24.1 | –
22 | C=C(C)[C@@H]1CC[C@]2(NCCN3CCS(=O)(=O)CC3)CC[C@]3(C)[C@H](CC[C@@H]4[C@@]5(C)CC=C(C6=CCC(CF)(C(=O)O)CC6)C(C)(C)[C@@H]5CC[C@]43C)[C@@H]12 (single isomer, unassigned) [FIPRAVIRIMAT] | 2 | – | 9.4 | 13300 | 1.8 | – | 6.98 | 6.6
23 | C=C(C)[C@@H]1CC[C@]2(NCCN3CCC(S(C)(=O)=O)CC3)CC[C@]3(C)[C@H](CC[C@@H]4[C@@]5(C)CC=C(C6=CCC(CCCOC)(C(=O)O)CC6)C(C)(C)[C@@H]5CC[C@]43C)[C@@H]12 (stereo not given in full) | 2 | 19.3 | 11.1 | 12100 | – | – | – | –
24 | C=C(C)[C@@H]1CC[C@]2(NCCN3CCS(=O)(=O)CC3)CC[C@]3(C)[C@H](CC[C@@H]4[C@@]5(C)CC=C(C6=CCC(C(=O)O)CC6)C(C)(C)[C@@H]5CC[C@]43C)[C@@H]12 (stereo not given in full) | – | – | – | 13900 | – | – | 12.9 | –
